Experimental data as given in patent EP2787958B1, “CHELIDONIUM MAJUS EXTRACTS AND THEIR USE IN THE TREATMENT OF SKIN DISORDERS AND PROMOTION OF SKIN REGENERATION” (priority 2011, dated 2013).
Where two headings read alike, the source gives them in different places.

Tests used:
[1] = test system: interleukin 1β (IL-1β); test: Inflammatory cytokines in cell supernatant (Mosaic ELISA microarray): IL-1β; type: cell-based, Human; details: for IL-1β ng/(ml* No. of cells from photo) ± SD: 24 hours
[2] = test system: interleukin 6 (IL-6); test: Inflammatory cytokines in cell supernatant (Mosaic ELISA microarray): IL-6; type: cell-based, Human; details: for IL-6 ng/(ml* No. of cells from photo) ± SD: 24 hours
[3] = test system: HDF cells; test: Evaluation of cell morphology (Sirius Red stained cells, microscopy); type: cell-based, Human
Protocol: Their morphology, colour and shape have been evaluated by using the ImageJ software program.
The results of the effects on cell morphology, produced by the treatment with the test compounds for 24 hours at the concentrations specified, in HDF cells stained for collagen with PSR are shown in Figures 4a-d, 5a-d and 6a-f. These Figures allow evaluating cell morphology through light microscopy observation at magnifications of 100x, 200x and 400x for HDF cells cultured under standard growth conditions, in the presence of 100 µM H2O2 and in the presence of 34 ng/ml TGF-β1.

[4] = Anti-radical activity (decay of the DPPH radical); type: biochemical; details: for Anti-radical (skin protective): 24 hours
Outline: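 Test substance in ethanol mixed 1:1 with 200 µM DPPH (stock concentrations), in quadruplicate. Absorbance read at 530 nm after 30 min, with vitamin C and ethanol-only controls. IC50 from variable-slope Hill regression of dose-activity curves.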

[5] = test system: HDF cells; test: Summary of uses and toxic effects deduced from the cell assays (Table 1); type: cell-based, Human; details: for Anti-fibrotic (prevention of scar formation, also from acne) / Cytoprotective (antioxidant, anti-inflammatory and anti-ageing; useful also in the treatment of acne) / Cytotoxic / Irritant / Wound-healing: 24 hours
Outline: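 HDF cells exposed to test substances at a given dosage for 24 h; uses and toxicity inferred from free-radical scavenging, mitochondrial dehydrogenase activity, IL-1β/IL-6 production (basal or induced by 100 µM H2O2), proliferation under standard growth conditions, and senescence-like morphology.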

[6] = test system: collagen produced by HDF cells; test: Quantity of collagen produced by the cells (elution of Sirius Red)
[7] = test system: Human dermal fibroblasts (HDF); test: Mitochondrial dehydrogenase activity (WST-1 formazan assay) in HDF cells; details: for mitochondrial dehydrogenase activity (effect in words): 1 µM; for Revitalizing agent: 24 hours; for activity at 1 µM / activity at 10 µM: Homo sapiens, Fibroblast, read-out: % mitochondrial dehydrogenase activity ± SD
Protocol: Human dermal fibroblasts were used for assay at the 3rd T75 passage.
Mitochondrial dehydrogenase activity was measured in HDF, HEK and HUVEC cells by means of the formazan assay, using the WST-1 kit from Roche Diagnostic in accordance with the supplier's instructions. Briefly: the reagent was added (10 µl per well), the incubation was carried out for a further 2 hours or 4 hours, and, at the end of this time, the absorbance was read for 1 s at a wavelength of 450 nm in a Perkin Elmer Victor 2 Wallac microplate reader.
The activity percentage (% mitochondrial dehydrogenase activity) is defined as: % mitochondrial dehydrogenase activity = ((absorbance of treated cells - absorbance of blank) / (absorbance of control - absorbance of blank)) x 100.
The tests were performed with observations after 18 hours, seeding 8,000 cells per well, and after 42 hours, seeding 2,000 cells per well. Furthermore, in order to better analyze the dose/response curves for dihydroberberine, canadine and stylopine, curves were collected at 11 concentrations by seeding 2,000 cells per well with 46 hours incubation.
Dose/response curves are plotted at 6 concentrations. The tests were performed with observations after 24 hours, seeding 8,000 cells per well.

[8] = test system: HDF cells; test: Evaluation of cell proliferation (counting of Sirius Red stained cells in photographs); details: for No. of cells from photo ± SD: 24 hours
[9] = Dose 1 µm (coptisine: 1 pm [sic])

With `CN1Cc2c(ccc3c2OCO3)[C@@H]2[C@H]1c1cc3c(cc1C[C@@H]2O)OCO3` [chelidonine] the “IL-1β production (effect in words)” value ([1]; 1 µM, 34 ng/ml TGF-β1) was “antagonizes the production of IL-1β”, the “IL-1β ng/(ml* No. of cells from photo) ± SD” value ([1]; 1 µM, 34 ng/ml TGF-β1) was 127±26 ng/(ml* No. of cells from photo) and the “IL-1β production (effect in words)” value ([1]; 1 µM, 100 µM H2O2) was “antagonizes the production of IL-1β”. The “IL-1β ng/(ml* No. of cells from photo) ± SD” value ([1]; 1 µM, 100 µM H2O2) was 115±8 ng/(ml* No. of cells from photo), the “IL-1β ng/(ml* No. of cells from photo) ± SD” value ([1]; 1 µM, Standard conditions) was 666±30 ng/(ml* No. of cells from photo) and the “IL-1β production (effect in words)” value ([1]; 1 µM, standard conditions) was “inhibits the production of IL-1β”. The “IL-1β production (effect in words)” value ([1]; 10 µM, 34 ng/ml TGF-β1) was “stimulates IL-1β production”, the “IL-1β ng/(ml* No. of cells from photo) ± SD” value ([1]; 10 µM, 34 ng/ml TGF-β1) was 363±27 ng/(ml* No. of cells from photo) and the “IL-1β production (effect in words)” value ([1]; 10 µM, 100 µM H2O2) was “stimulates IL-1β production”. For the same molecule, the “IL-1β ng/(ml* No. of cells from photo) ± SD” value ([1]; 10 µM, 100 µM H2O2) was 366±35 ng/(ml* No. of cells from photo), the “IL-1β ng/(ml* No. of cells from photo) ± SD” value ([1]; 10 µM, Standard conditions) was 17500±700 ng/(ml* No. of cells from photo) and the “IL-1β production (effect in words)” value ([1]; 10 µM, standard conditions) was “stimulates IL-1β production”. The “IL-6 production (effect in words)” value ([2]; 1 µM, 34 ng/ml TGF-β1) was “antagonizes the production of IL-6”, the “IL-6 ng/(ml* No. of cells from photo) ± SD” value ([2]; 1 µM, 34 ng/ml TGF-β1) was 620±72 ng/(ml* No. of cells from photo) and the “IL-6 production (effect in words)” value ([2]; 1 µM, 100 µM H2O2) was “antagonizes the production of IL-6”. The “IL-6 ng/(ml* No. of cells from photo) ± SD” value ([2]; 1 µM, 100 µM H2O2) was 697±87 ng/(ml* No. of cells from photo), the “IL-6 ng/(ml* No. of cells from photo) ± SD” value ([2]; 1 µM, Standard conditions) was 2883±553 ng/(ml* No. of cells from photo) and the “IL-6 production (effect in words)” value ([2]; 1 µM, standard conditions) was “inhibits the production of IL-6”. For the same molecule, the “IL-6 production (effect in words)” value ([2]; 10 µM, 34 ng/ml TGF-β1) was “stimulates IL-6 production”, the “IL-6 ng/(ml* No. of cells from photo) ± SD” value ([2]; 10 µM, 34 ng/ml TGF-β1) was 1231±76 ng/(ml* No. of cells from photo) and the “IL-6 production (effect in words)” value ([2]; 10 µM, 100 µM H2O2) was “stimulates IL-6 production”. The “IL-6 ng/(ml* No. of cells from photo) ± SD” value ([2]; 10 µM, 100 µM H2O2) was 1990±32 ng/(ml* No. of cells from photo), the “IL-6 ng/(ml* No. of cells from photo) ± SD” value ([2]; 10 µM, Standard conditions) was 38100±8300 ng/(ml* No. of cells from photo) and the “IL-6 production (effect in words)” value ([2]; 10 µM, standard conditions) was “stimulates IL-6 production”. The cell morphology ([3]; 1 µM) was “No changes in cell morphology”, the cell morphology ([3]; 10 µM) was “Very obvious changes in cell morphology” and the “% DPPH activity” value ([4]; 1 mM, 30 minutes) was 98%. For the same molecule, the “Anti-radical (skin protective)” value [4, 9] was “No”, the “Anti-radical (skin protective)” value ([4]; Dose 10 µm) was “No” and the “Anti-fibrotic (prevention of scar formation, also from acne)” value [5, 9] was “Yes (↓collagen, ↓IL-6, ↓IL-1β)”. For the same molecule, the “Cytoprotective (antioxidant, anti-inflammatory and anti-ageing; useful also in the treatment of acne)” value [5, 9] was “Yes (↓IL-6, ↓IL-1β)”, the Cytotoxic [5, 9] was “No” and the Irritant [5, 9] was “No”. For the same molecule, the Wound-healing [5, 9] was “Yes (↓IL-1β)”, the “Anti-fibrotic (prevention of scar formation, also from acne)” value ([5]; Dose 10 µm) was “No” and the “Cytoprotective (antioxidant, anti-inflammatory and anti-ageing; useful also in the treatment of acne)” value ([5]; Dose 10 µm) was “No”. For the same molecule, the Cytotoxic ([5]; Dose 10 µm) was “Yes (senescent morph., ↓dehydrogenase)”, the Irritant ([5]; Dose 10 µm) was “Yes (↑IL-6, ↑IL-1β)” and the Wound-healing ([5]; Dose 10 µm) was “No”. For the same molecule, the “concentrations at which no toxic (cytotoxic and irritant) effects are shown” value ([5]; exposure for 24 hours) was “less than or equal to 1 µM”, the “collagen production (effect in words)” value ([6]; 1 µM, 34 ng/ml TGF-β1) was “tendency to antagonize collagen stimulation induced by TGF-β1” and the “collagen production (effect in words)” value ([6]; 1 µM, 100 µM H2O2) was “tendency to inhibit collagen production”. The “collagen production (effect in words)” value ([6]; 1 µM, standard conditions) was “no evident ability to modulate collagen production”, the “collagen production (effect in words)” value ([6]; 10 µM, 34 ng/ml TGF-β1) was “stimulates collagen production” and the “collagen production (effect in words)” value ([6]; 10 µM, 100 µM H2O2) was “stimulates collagen production”. The “collagen production (effect in words)” value ([6]; 10 µM, standard conditions) was “stimulates collagen production”, the “concentrations below which no significant effects on mitochondrial dehydrogenase activity are shown” value [7] was “less than 0.1 µM” and the “mitochondrial dehydrogenase activity (effect in words)” value ([7]; 18 h) was “absence of effects”. The “mitochondrial dehydrogenase activity (effect in words)” value ([7]; increased exposure time) was “significant inhibition of mitochondrial dehydrogenase activity”, the Revitalizing agent [7, 9] was “No” and the Revitalizing agent ([7]; Dose 10 µm) was “No”. The activity at 1 µM ([7]; 18 h) was 105 ± 7.05%, the activity at 10 µM ([7]; 18 h) was 89.3 ± 6.9% and the activity at 1 µM ([7]; 42 h) was 64.7 ± 5.88%. The activity at 10 µM ([7]; 42 h) was 30.3 ± 2.97%, the “inhibitory power toward the mitochondrial dehydrogenase activity” value ([7]; skin fibroblast cells and/or keratinocytes) was “marked inhibitory power” and the “cell proliferation (effect in words)” value ([8]; 1 µM) was “no evident ability to modulate cell proliferation”. The “No. of cells from photo ± SD” value ([8]; 1 µM, 34 ng/ml TGF-β1) was 184±25, the “No. of cells from photo ± SD” value ([8]; 1 µM, 100 µM H2O2) was 189±37 and the “No. of cells from photo ± SD” value ([8]; 1 µM, Standard conditions) was 202±21. The “cell proliferation (effect in words)” value ([8]; 10 µM) was “marked inhibition of proliferation”, the “No. of cells from photo ± SD” value ([8]; 10 µM, 100 µM H2O2) was 101±4 and the “No. of cells from photo ± SD” value ([8]; 10 µM, Standard conditions) was 109±16.

For `C[n+]1cc2c3c(ccc2c2ccc4cc5c(cc4c21)OCO5)OCO3` [sanguinarine], the “IL-1β ng/(ml* No. of cells from photo) ± SD” value ([1]; 1 µM, 34 ng/ml TGF-β1) was 297±13 ng/(ml* No. of cells from photo), the “IL-1β ng/(ml* No. of cells from photo) ± SD” value ([1]; 1 µM, 100 µM H2O2) was 253±9 ng/(ml* No. of cells from photo) and the “IL-1β ng/(ml* No. of cells from photo) ± SD” value ([1]; 1 µM, Standard conditions) was 75±1 ng/(ml* No. of cells from photo). For the same molecule, the “IL-1β ng/(ml* No. of cells from photo) ± SD” value ([1]; 10 µM, 34 ng/ml TGF-β1) was 16400±5000 ng/(ml* No. of cells from photo), the “IL-1β ng/(ml* No. of cells from photo) ± SD” value ([1]; 10 µM, 100 µM H2O2) was 18400±2800 ng/(ml* No. of cells from photo) and the “IL-1β ng/(ml* No. of cells from photo) ± SD” value ([1]; 10 µM, Standard conditions) was 4535±81 ng/(ml* No. of cells from photo). The “IL-6 ng/(ml* No. of cells from photo) ± SD” value ([2]; 1 µM, 34 ng/ml TGF-β1) was 2167±279 ng/(ml* No. of cells from photo), the “IL-6 ng/(ml* No. of cells from photo) ± SD” value ([2]; 1 µM, 100 µM H2O2) was 2374±264 ng/(ml* No. of cells from photo) and the “IL-6 ng/(ml* No. of cells from photo) ± SD” value ([2]; 1 µM, Standard conditions) was 470±32 ng/(ml* No. of cells from photo). For the same molecule, the “IL-6 ng/(ml* No. of cells from photo) ± SD” value ([2]; 10 µM, 34 ng/ml TGF-β1) was 56600±9000 ng/(ml* No. of cells from photo), the “IL-6 ng/(ml* No. of cells from photo) ± SD” value ([2]; 10 µM, 100 µM H2O2) was 66300±5000 ng/(ml* No. of cells from photo) and the “IL-6 ng/(ml* No. of cells from photo) ± SD” value ([2]; 10 µM, Standard conditions) was 17786±27 ng/(ml* No. of cells from photo). The cell morphology ([3]; 1 µM) was “senescent morphology”, the cell morphology ([3]; 10 µM) was “complete absence of cells” and the Cytotoxic [5, 9] was “Yes (senescent morph., ↓dehydrogenase)”. The Irritant [5, 9] was “Yes (↑IL-6, ↑IL-1β)”, the Cytotoxic ([5]; Dose 10 µm) was “Yes (cell death, ↓dehydrogenase)” and the Irritant ([5]; Dose 10 µm) was “Yes (↑IL-6, ↑IL-1β)”. For the same molecule, the “concentrations at which toxic (cytotoxic and irritant) effects are shown” value ([5]; exposure for 24 hours) was “greater than or equal to 1 µM”, the “concentrations above which marked inhibition of mitochondrial dehydrogenase activity is caused” value ([7]; 18 h and 42 h) was “higher than 1 µM” and the activity at 1 µM ([7]; 18 h) was 83.3 ± 6.83%. It also gave an activity at 10 µM ([7]; 18 h) of -1.57 ± 1.65%, an activity at 1 µM ([7]; 42 h) of -2.8 ± 3.67% and an activity at 10 µM ([7]; 42 h) of -16.6 ± 2.55%. The “No. of cells from photo ± SD” value ([8]; 1 µM, 34 ng/ml TGF-β1) was 86±7, the “No. of cells from photo ± SD” value ([8]; 1 µM, 100 µM H2O2) was 110±18 and the “No. of cells from photo ± SD” value ([8]; 1 µM, Standard conditions) was 30±9. For the same molecule, the “No. of cells from photo ± SD” value ([8]; 10 µM, 34 ng/ml TGF-β1) was 1±0, the “No. of cells from photo ± SD” value ([8]; 10 µM, 100 µM H2O2) was 1±0 and the “No. of cells from photo ± SD” value ([8]; 10 µM, Standard conditions) was 1±0.
